Species: Rattus norvegicus
Experiment: Open TG-GATES - Regimen: Single
Assay type: toxicity, organism-based, Sprague-Dawley
Design: regimen Single, gender Male, age 6 weeks
Details: in vivo, po, 1000 mg/kg, route gavage, dose level High; for APTT / Bas / Eos / Fbg / Hb / Ht / Lym / MCH / MCHC / MCV / Mono / Neu / PT / Plat / RBC / Ret / WBC: tissue Blood; for KIDNEY_L / KIDNEY_R / KIDNEY_TOTAL: tissue Kidney; for LIVER: tissue Liver; for A/G / ALP / ALT / AST / BUN / CRE / Ca / Cl / DBIL / GLC / IP / K / LDH / Na / PL / RALB / TBIL / TC / TG / TP / gamma-GTP: tissue Plasma

CCCCNC(=O)NS(=O)(=O)c1ccc(C)cc1 [TOLBUTAMIDE]
TERMINAL_BW (3 h): 206.8 g | APTT (3 h): 17 s | Bas (3 h): 0% | Eos (3 h): 0.8% | Fbg (3 h): 292.2 mg/dL | Hb (3 h): 14.1 g/dL | Ht (3 h): 43.1% | Lym (3 h): 76.8% | MCH (3 h): 21 pg | MCHC (3 h): 32.6% | MCV (3 h): 64.4 fL | Mono (3 h): 3% | Neu (3 h): 18.6% | PT (3 h): 12.9 s | Plat (3 h): 111.8 x10_4/uL | RBC (3 h): 669.4 x10_4/ul | Ret (3 h): 9% | WBC (3 h): 54.6 x10_2/uL | KIDNEY_L (3 h): 0.9 g | KIDNEY_R (3 h): 0.9 g | KIDNEY_TOTAL (3 h): 1.8 g | LIVER (3 h): 9.4 g | A/G (3 h): 0.9 | ALP (3 h): 1359.4 IU/L | ALT (3 h): 46.8 IU/L | AST (3 h): 77.6 IU/L | BUN (3 h): 12.4 mg/dL | CRE (3 h): 0.2 mg/dL | Ca (3 h): 10.9 mg/dL | Cl (3 h): 105.8 meq/L | DBIL (3 h): 0.004 mg/dL | GLC (3 h): 152 mg/dL | IP (3 h): 9.3 mg/dL | K (3 h): 4 meq/L | LDH (3 h): 56.4 IU/L | Na (3 h): 140.6 meq/L | PL (3 h): 138.2 mg/dL | RALB (3 h): 2.7 g/dL | TBIL (3 h): 0.05 mg/dL | TC (3 h): 73.6 mg/dL | TG (3 h): 75 mg/dL | TP (3 h): 5.6 g/dL | gamma-GTP (3 h): 1 IU/L | TERMINAL_BW (6 h): 203.1 g | APTT (6 h): 16.9 s | Bas (6 h): 0% | Eos (6 h): 1% | Fbg (6 h): 321.6 mg/dL | Hb (6 h): 14.1 g/dL | Ht (6 h): 43% | Lym (6 h): 72% | MCH (6 h): 21.4 pg | MCHC (6 h): 32.7% | MCV (6 h): 65.3 fL | Mono (6 h): 3.4% | Neu (6 h): 23.6% | PT (6 h): 12.8 s | Plat (6 h): 120.2 x10_4/uL | RBC (6 h): 659.8 x10_4/ul | Ret (6 h): 8.9% | WBC (6 h): 69.4 x10_2/uL | KIDNEY_L (6 h): 0.9 g | KIDNEY_R (6 h): 0.9 g | KIDNEY_TOTAL (6 h): 1.8 g | LIVER (6 h): 8.5 g | A/G (6 h): 0.9 | ALP (6 h): 1301 IU/L | ALT (6 h): 39 IU/L | AST (6 h): 70.6 IU/L | BUN (6 h): 12.6 mg/dL | CRE (6 h): 0.2 mg/dL | Ca (6 h): 11 mg/dL | Cl (6 h): 105.2 meq/L | DBIL (6 h): 0.008 mg/dL | GLC (6 h): 140 mg/dL | IP (6 h): 9.8 mg/dL | K (6 h): 3.9 meq/L | LDH (6 h): 56 IU/L | Na (6 h): 140.6 meq/L | PL (6 h): 144.4 mg/dL | RALB (6 h): 2.7 g/dL | TBIL (6 h): 0.054 mg/dL | TC (6 h): 79.6 mg/dL | TG (6 h): 64.2 mg/dL | TP (6 h): 5.7 g/dL | gamma-GTP (6 h): 1.2 IU/L | TERMINAL_BW (9 h): 197.9 g | APTT (9 h): 17.7 s | Bas (9 h): 0.2% | Eos (9 h): 1% | Fbg (9 h): 332.8 mg/dL | Hb (9 h): 14.4 g/dL | Ht (9 h): 43.7% | Lym (9 h): 75% | MCH (9 h): 21 pg | MCHC (9 h): 33.1% | MCV (9 h): 63.4 fL | Mono (9 h): 1.8% | Neu (9 h): 22% | PT (9 h): 13.1 s | Plat (9 h): 127.4 x10_4/uL | RBC (9 h): 689.4 x10_4/ul | Ret (9 h): 8.2% | WBC (9 h): 56.7 x10_2/uL | KIDNEY_L (9 h): 0.9 g | KIDNEY_R (9 h): 0.9 g | KIDNEY_TOTAL (9 h): 1.9 g | LIVER (9 h): 7.8 g | A/G (9 h): 0.9 | ALP (9 h): 1554.6 IU/L | ALT (9 h): 38.8 IU/L | AST (9 h): 69.8 IU/L | BUN (9 h): 11.2 mg/dL | CRE (9 h): 0.2 mg/dL | Ca (9 h): 10.7 mg/dL | Cl (9 h): 106 meq/L | DBIL (9 h): 0.006 mg/dL | GLC (9 h): 125.2 mg/dL | IP (9 h): 10.4 mg/dL | K (9 h): 3.9 meq/L | LDH (9 h): 53.6 IU/L | Na (9 h): 141.4 meq/L | PL (9 h): 127 mg/dL | RALB (9 h): 2.7 g/dL | TBIL (9 h): 0.056 mg/dL | TC (9 h): 66.2 mg/dL | TG (9 h): 44.2 mg/dL | TP (9 h): 5.8 g/dL | gamma-GTP (9 h): 1 IU/L | TERMINAL_BW (24 h): 213.9 g | APTT (24 h): 16.6 s | Bas (24 h): 0% | Eos (24 h): 1% | Fbg (24 h): 274 mg/dL | Hb (24 h): 13.3 g/dL | Ht (24 h): 41.1% | Lym (24 h): 80% | MCH (24 h): 21 pg | MCHC (24 h): 32.5% | MCV (24 h): 64.4 fL | Mono (24 h): 3% | Neu (24 h): 15.6% | PT (24 h): 13.4 s | Plat (24 h): 117.8 x10_4/uL | RBC (24 h): 637.8 x10_4/ul | Ret (24 h): 7.3% | WBC (24 h): 83.8 x10_2/uL | KIDNEY_L (24 h): 0.9 g | KIDNEY_R (24 h): 0.9 g | KIDNEY_TOTAL (24 h): 1.8 g | LIVER (24 h): 9.4 g | A/G (24 h): 0.9 | ALP (24 h): 1517.2 IU/L | ALT (24 h): 44.2 IU/L | AST (24 h): 75.4 IU/L | BUN (24 h): 15.4 mg/dL | CRE (24 h): 0.2 mg/dL | Ca (24 h): 10.9 mg/dL | Cl (24 h): 106.6 meq/L | DBIL (24 h): 0.006 mg/dL | GLC (24 h): 201.4 mg/dL | IP (24 h): 8.4 mg/dL | K (24 h): 3.9 meq/L | LDH (24 h): 73.4 IU/L | Na (24 h): 141.6 meq/L | PL (24 h): 136.6 mg/dL | RALB (24 h): 2.5 g/dL | TBIL (24 h): 0.058 mg/dL | TC (24 h): 77.2 mg/dL | TG (24 h): 72.2 mg/dL | TP (24 h): 5.4 g/dL | gamma-GTP (24 h): 1 IU/L

Source: ChEMBL document CHEMBL3885861, “Open TG-GATES”
